Source: paper PMC10974284, “Discovery of Novel 4-Hydroxyquinazoline Derivatives: In Silico, In Vivo and In Vitro Studies Using Primary PARPi-Resistant Cell Lines” (Molecules, 2024)
Read-outs that look alike come from different tables or passages of the source.

How the values were obtained:
[1] = system: HCC1937 cell lines; test: MTT cytotoxicity assay, HCC1937; assay type: cell-based, human; details: Homo sapiens, read-out: IC50 HCC1937
Method: (§1) After treatment with target compounds at the different concentrations, MTT was added and the cells were incubated for another 4 h. The IC50 values of the selected compounds were evaluated by the same method. The cells were treated with compounds at different concentrations. The OD values were detected using a microplate reader at 570 nm.

[2] = system: HCT-15 cell lines; test: MTT cytotoxicity assay, HCT-15; assay type: cell-based, human; details: Homo sapiens, read-out: IC50 HCT-15
Method: as §1

[3] = HCC1937, 72 h (3-Days) drug exposure, MTT
[4] = HCT-15, 72 h (3-Days) drug exposure, MTT

Row | SMILES | melting point [°C] | IC50 [1, 3] [µM] | IC50 [2, 4] [µM] | IC50 ([1]; HCC1937, 72 h) [µM] | IC50 ([2]; HCT-15, 72 h) [µM]
1 | O=C(Nc1ccc(Cl)cc1)N1CCN(Cc2nc3ccccc3c(=O)[nH]2)CC1 [A6, N-(4-chlorophenyl)-4-((4-oxo-3,4-dihydroquinazolin-2-yl)methyl)piperazine-1-carboxamide] | 189.8 to 191.4 | > 50 | 21.4 ± 0.86 | – | –
2 | Cc1cc(F)ccc1NC(=O)N1CCN(Cc2nc3ccccc3c(=O)[nH]2)CC1 [A29, N-(4-fluoro-2-methylphenyl)-4-((4-oxo-3,4-dihydroquinazolin-2-yl)methyl)piperazine-1-carboxamide] | 197.6 to 200.1 | > 50 | 29.8 ± 1.57 | – | –
3 | Cc1cccc(NC(=O)N2CCN(Cc3nc4ccccc4c(=O)[nH]3)CC2)c1F [A21, N-(2-fluoro-3-methylphenyl)-4-((4-oxo-3,4-dihydroquinazolin-2-yl)methyl)piperazine-1-carboxamide] | 200.5 to 202.1 | > 50 | 28.3 ± 1.55 | – | –
4 | Cc1ccc(Cl)cc1NC(=O)N1CCCN(Cc2nc3ccccc3c(=O)[nH]2)C1 [B7, N-(5-chloro-2-methylphenyl)-3-((4-oxo-3,4-dihydroquinazolin-2-yl)methyl)tetrahydropyrimidine-1(2H)-carboxamide] | 197.3 to 198.7 | 57.9 ± 3.33 | 13.7 ± 1.21 | – | –
5 | COc1ccc(NC(=O)N2CCN(Cc3nc4ccccc4c(=O)[nH]3)CC2)cc1 [A18, N-(4-methoxyphenyl)-4-((4-oxo-3,4-dihydroquinazolin-2-yl)methyl)piperazine-1-carboxamide] | 184.9 to 186.9 | > 50 | > 50 | – | –
6 | O=C(Nc1cccc(F)c1F)N1CCN(Cc2nc3ccccc3c(=O)[nH]2)CC1 [A19, N-(2,3-difluorophenyl)-4-((4-oxo-3,4-dihydroquinazolin-2-yl)methyl)piperazine-1-carboxamide] | 188.2 to 189.9 | > 50 | 19.1 ± 0.59 | – | –
7 | O=C(Nc1cccc(F)c1)N1CCN(Cc2nc3ccccc3c(=O)[nH]2)CC1 [A2, N-(3-fluorophenyl)-4-((4-oxo-3,4-dihydroquinazolin-2-yl)methyl)piperazine-1-carboxamide] | 189.5 to 192.1 | > 50 | 34.9 ± 2.23 | – | –
8 | Cc1ccc2c(=O)[nH]c(CN3CC4CC(C3)N4C(=O)Nc3cc(Cl)ccc3C)nc2c1 [C3, N-(5-chloro-2-methylphenyl)-3-((7-methyl-4-oxo-3,4-dihydroquinazolin-2-yl)methyl)-3,6-diazabicyclo[3.1.1]heptane-6-carboxamide] | 197.7 to 199.3 | – | – | 30.1 ± 3.12 | 28.4 ± 2.87
9 | Cc1ccc(Cl)cc1NC(=O)N1CCCN(Cc2nc3ccccc3c(=O)[nH]2)CC1 [B4, N-(5-chloro-2-methylphenyl)-4-((4-oxo-3,4-dihydroquinazolin-2-yl)methyl)-1,4-diazepane-1-carboxamide] | 186.6 to 187.9 | 5.77 ± 0.99 | 5.65 ± 1.29 | – | –
10 | O=C(Nc1ccc(F)c(Cl)c1)N1CCN(Cc2nc3ccccc3c(=O)[nH]2)CC1 [A36, N-(3-chloro-4-fluorophenyl)-4-((4-oxo-3,4-dihydroquinazolin-2-yl)methyl)piperazine-1-carboxamide] | 200.1 to 202.7 | > 50 | 25.2 ± 1.66 | – | –
11 | O=C(Nc1ccc(C(F)(F)F)cc1F)N1CCN(Cc2nc3ccccc3c(=O)[nH]2)CC1 [A24, N-(2-fluoro-4-(trifluoromethyl)phenyl)-4-((4-oxo-3,4-dihydroquinazolin-2-yl)methyl)piperazine-1-carboxamide] | 202.3 to 203.9 | 44.1 ± 2.19 | 22.8 ± 1.82 | – | –
12 | O=C(Nc1cc(C(F)(F)F)ccc1Cl)N1CCN(Cc2nc3ccccc3c(=O)[nH]2)CC1 [A26, N-(2-chloro-5-(trifluoromethyl)phenyl)-4-((4-oxo-3,4-dihydroquinazolin-2-yl)methyl)piperazine-1-carboxamide] | 191.2 to 193.9 | > 50 | 37.3 ± 2.76 | – | –
13 | O=C(Nc1cccc(Br)c1)N1CCN(Cc2nc3ccccc3c(=O)[nH]2)CC1 [A8, N-(3-bromophenyl)-4-((4-oxo-3,4-dihydroquinazolin-2-yl)methyl)piperazine-1-carboxamide] | 194.2 to 196.3 | 47.4 ± 2.96 | 27.7 ± 2.56 | – | –
14 | O=C(Nc1cccc(C(F)(F)F)c1)N1CCN(Cc2nc3ccccc3c(=O)[nH]2)CC1 [A14, 4-((4-oxo-3,4-dihydroquinazolin-2-yl)methyl)-N-(3-(trifluoromethyl)phenyl)piperazine-1-carboxamide] | 197.8 to 200.3 | 17.7 ± 0.77 | 20 ± 1.15 | – | –
15 | Cc1c(Br)cccc1NC(=O)N1CCN(Cc2nc3ccccc3c(=O)[nH]2)CC1 [A31, N-(3-bromo-2-methylphenyl)-4-((4-oxo-3,4-dihydroquinazolin-2-yl)methyl)piperazine-1-carboxamide] | 200.6 to 202.2 | > 50 | > 50 | – | –
16 | O=C(Nc1c(F)cccc1Cl)N1CCN(Cc2nc3ccccc3c(=O)[nH]2)CC1 [A25, N-(2-chloro-6-fluorophenyl)-4-((4-oxo-3,4-dihydroquinazolin-2-yl)methyl)piperazine-1-carboxamide] | 198.4 to 199.8 | > 50 | 41.2 ± 1.44 | – | –
17 | Cc1ccc(NC(=O)N2CCN(Cc3nc4ccccc4c(=O)[nH]3)CC2)cc1 [A12, 4-((4-oxo-3,4-dihydroquinazolin-2-yl)methyl)-N-(p-tolyl)piperazine-1-carboxamide] | 197.7 to 199.5 | > 50 | > 50 | – | –
18 | Cc1ccc(Cl)c(NC(=O)N2CCN(Cc3nc4ccccc4c(=O)[nH]3)CC2)c1 [A27, N-(2-chloro-5-methylphenyl)-4-((4-oxo-3,4-dihydroquinazolin-2-yl)methyl)piperazine-1-carboxamide] | 196.7 to 198.7 | 17.5 ± 0.66 | 25.4 ± 1.48 | – | –
19 | Cc1c(F)cccc1NC(=O)N1CCN(Cc2nc3ccccc3c(=O)[nH]2)CC1 [A28, N-(3-fluoro-2-methylphenyl)-4-((4-oxo-3,4-dihydroquinazolin-2-yl)methyl)piperazine-1-carboxamide] | 198.9 to 200.6 | > 50 | 30.3 ± 3.3 | – | –
20 | O=C(Nc1cc(C(F)(F)F)cc(C(F)(F)F)c1)N1CCN(Cc2nc3ccccc3c(=O)[nH]2)CC1 [A39, N-(3,5-bis(trifluoromethyl)phenyl)-4-((4-oxo-3,4-dihydroquinazolin-2-yl)methyl)piperazine-1-carboxamide] | 204.2 to 206.1 | 42.2 ± 2.77 | 21 ± 2.33 | – | –
21 | Cc1ccc(Cl)cc1NC(=O)N1C[C@@H]2C[C@H]1CN2Cc1nc2ccccc2c(=O)[nH]1 [B3, (1S,4S)-N-(5-chloro-2-methylphenyl)-5-((4-oxo-3,4-dihydroquinazolin-2-yl)methyl)-2,5-diazabicyclo[2.2.1]heptane-2-carboxamide] | 191.1 to 192.4 | 16.5 ± 0.94 | 12.5 ± 1.49 | – | –
22 | O=C(Nc1ccc(Br)cc1)N1CCN(Cc2nc3ccccc3c(=O)[nH]2)CC1 [A9, N-(4-bromophenyl)-4-((4-oxo-3,4-dihydroquinazolin-2-yl)methyl)piperazine-1-carboxamide] | 187.8 to 188.9 | > 50 | > 50 | – | –
